Laboratory results published in US5206255A, “Heterocyclic compound” (Mitsubishi Kasei Corporation, priority 1989, dated 1993).
Where two headings read alike, the source gives them in different places.

Assays:
[1] = test system: Ear Edema Caused by Arachidonic Acid; assay: Suppressing effect on ear edema caused by arachidonic acid; format: in vivo, ICR male mice; details: Mus musculus, 1 h, thickness after one hour, read-out: Suppression rate (ear edema); for inhibition in vivo at 0.1 mg: topical, local application, 0.1 mg/auricle, 30 min before inflammatory agent (2 mg arachidonic acid); for inhibition in vivo at 50 mg/kg: oral administration, one hour before inflammatory agent (2 mg arachidonic acid)
Method: The thickness of auricles of ICR male mice of 6 week-age was measured by using a micrometer. On both sides of one of the auricles of each mouse, was applied 2 mg of arachidonic acid dissolved in acetone as the inflammatory agent to cause inflammation thereon. The thickness of the auricle after one hour of the application was measured and the difference between the thickness obtained and the thickness before the application was taken as the value of ear edema. The compound according to the present invention dissolved in ethanol or only ethanol as a control were orally administrated or applied localy. In the case of oral administration, 50 mg/kg of the compound according to the present invention was administrated one hour before the application of the inflammatory agent, and 0.1 mg/auricle was applied 30 min before the application in the case of local application.
The suppression rate of ear edema of the compound according to the present invention was calculated based on the ratio of the suppression to the value of ear edema in the control group and the results are shown in Tables 6 and 7 (Compound numbers in Tables 6 and 7 correspond to the Compound numbers in Table 1).
Further, benoxaprofen and NDGA were used as the comparison.

lipoxygenase = target: T1, lipoxygenase (Rattus norvegicus, UniProt P12527); assay: Inhibition activity to lipoxygenase (leukotriene production by rat abdominal cells, bioassay on guinea pig ileum); format: cell-based, Wister rat; details: read-out: Inhibition intensity; for inhibition at 1 µM: 10^-6 M (final concentration)
T1 construct: abdominal cells of Wister rat (7 to 12 week-age); endogenous in cells; host or cells: abdominal (peritoneal) cells of Wister [Wistar] rat
T1 sequence (P12527 1-673): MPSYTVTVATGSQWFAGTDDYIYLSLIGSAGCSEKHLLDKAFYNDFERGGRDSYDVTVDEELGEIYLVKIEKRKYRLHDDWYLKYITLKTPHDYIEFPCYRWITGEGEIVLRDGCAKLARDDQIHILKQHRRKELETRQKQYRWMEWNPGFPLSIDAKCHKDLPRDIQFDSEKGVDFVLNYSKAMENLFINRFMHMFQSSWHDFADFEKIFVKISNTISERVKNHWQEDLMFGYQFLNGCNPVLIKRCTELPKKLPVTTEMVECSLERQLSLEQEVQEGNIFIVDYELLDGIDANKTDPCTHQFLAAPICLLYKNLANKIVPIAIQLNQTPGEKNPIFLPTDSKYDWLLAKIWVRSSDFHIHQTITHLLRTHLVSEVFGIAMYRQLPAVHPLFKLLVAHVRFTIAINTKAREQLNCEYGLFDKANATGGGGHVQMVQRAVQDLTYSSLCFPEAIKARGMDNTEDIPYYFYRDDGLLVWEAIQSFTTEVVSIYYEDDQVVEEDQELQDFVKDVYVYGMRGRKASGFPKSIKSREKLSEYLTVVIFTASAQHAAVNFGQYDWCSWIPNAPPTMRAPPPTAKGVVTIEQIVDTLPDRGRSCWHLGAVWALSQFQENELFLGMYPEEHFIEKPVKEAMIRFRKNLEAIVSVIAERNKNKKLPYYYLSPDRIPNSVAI
Method: In 0.9 ml of Hunks' solution, were suspended 2×10^6 of abdominal cells of Wister rat (7 to 12 week-age) and incubated at 37° C. for 15 min after adding 10^-7 M of arachidonic acid and the compound of the present invention dissolved in ethanol, or only 10^-7 M of arachidonic acid and ethanol as a control. Further, 100 μl of 5 μg/μl of calcium inonophore A-23187 was added and the incubation was further continued at 37° C. for 15 min to produce leukotrienes. After cooling the reaction mixture with ice for 20 min to terminate the reaction, the reaction mixture was subjected to centrifugation at 4° C. for 10 min at 3000 rpm. The inhibition activity to lipoxygenase of the compound according to the present invention was measured by bioassay of leukotrienes contained in the resultant supernatants by using a Magunus' device while taking the contraction reaction of ileum extirpated from guinea pig as the indication. The inhibition rate of the compound according to the present invention was calculated based on the ratio of the suppression due to the compound with respect to the extent of the contraction reaction in the control group, and the intensity of inhibition based thereon is shown in the following Tables 4 and 5 (Compound numbers in Tables 4 and 5 correspond to the Compound numbers in Table 1).

[2] = parameters: species or system ICR male mice; details: mouse, in vivo, po, 2000 mg/kg
Method: The compounds according to the present invention (Compound No. 44 in Table 1) suspended in an aqueous 1% tragacanth solution was orally administrated by 2000 mg/kg to 6 week-age ICR male mice.

[3] = literature; cited from earlier work
[4] = 10^-5 M (final concentration), rat abdominal cells, calcium ionophore A-23187
[5] = rat abdominal cells, calcium ionophore A-23187

| inhibition at 10 µM (lipoxygenase; [4]) [%] | inhibition at 1 µM (lipoxygenase; [5]) [%] | SMILES | further results |
| --- | --- | --- | --- |
| 50 to 80 | – | C#CCCCC#CCOc1ccccc1Cc1nc2ccccc2o1 [Compound 98] | inhibition in vivo at 0.1 mg [1]: 50.2% |
| 80 to 100 | 50 to 80 | CC#CCOc1cccc(Cl)c1Cc1nc2ccccc2o1 [Compound 100] | – |
| 50 to 80 | 20 to 50 | Clc1ccc(OCCCCOc2ccc(Cc3nc4ccccc4o3)cc2Cl)cc1 [Compound 62] | inhibition in vivo at 0.1 mg [1]: 32.9% |
| 80 to 100 | – | Clc1cc(Cc2nc3ccccc3o2)ccc1OCCCC#Cc1ccccc1 [Compound 47] | – |
| 80 to 100 | 20 to 50 | CC#CCOc1cccc(Cc2nc3ccccc3o2)c1 [Compound 73] | inhibition in vivo at 50 mg/kg [1]: 85.1% |
| 50 to 80 | 20 to 50 | C#CCCCOc1ccc(Cl)cc1Cc1nc2ccccc2o1 [Compound 112] | – |
| 80 to 100 | 20 to 50 | C(#CCOc1ccccc1Cc1nc2ccccc2o1)CCCC#Cc1ccccc1 [Compound 90] | – |
| 80 to 100 | – | CC#CCOc1ccccc1Cc1nc2ccccc2o1 [Compound 96] | inhibition in vivo at 50 mg/kg [1]: 71.8% |
| 50 to 80 | – | CC#CCOc1cccc(Cc2nc(-c3ccccc3)co2)c1 [Compound 129] | – |
| 80 to 100 | 50 to 80 | COCCCCOc1ccc(Cc2nc3ccccc3o2)cc1Cl [Compound 51] | – |
| 80 to 100 | – | OCC#CCCCC#CCCCOc1ccc(Cc2nc3ccccc3o2)cc1Cl [Compound 57] | inhibition in vivo at 0.1 mg [1]: 49.8% |
| 80 to 100 | – | CCCCOc1cccc(Cc2nc3ccccc3o2)c1 [Compound 71] | inhibition in vivo at 50 mg/kg [1]: 77.9% |
| 50 to 80 | 20 to 50 | C(#Cc1ccccc1)CCCOc1ccccc1Cc1nc2ccccc2o1 [Compound 89] | – |

Continued, compound first:

| SMILES | inhibition at 10 µM (lipoxygenase; [4]) [%] | inhibition at 1 µM (lipoxygenase; [5]) [%] | further results |
| --- | --- | --- | --- |
| CC#CCOc1ccc(Cc2nc3ccccc3o2)c(Cl)c1 [Compound 34] | 50 to 80 | – | inhibition in vivo at 0.1 mg [1]: 42.9% |
| C(#Cc1ccccc1)CCCOc1ccc(Cc2nc3ccccc3o2)cc1 [Compound 29] | 80 to 100 | 20 to 50 | – |
| Clc1cc(Cc2nc3ccccc3o2)ccc1OCCCCOc1ccccc1 [Compound 44] | 80 to 100 | 50 to 80 | inhibition in vivo at 50 mg/kg [1]: 80.7%; Anatomic inspection [2]: no abnormality was observed; Condition and body weight [2]: no change was recognized at all |
| CCCC#CCOc1ccc(Cc2nc3ccccc3o2)cc1 [Compound 37] | 80 to 100 | 20 to 50 | inhibition in vivo at 0.1 mg [1]: 42.1% |
| CC(Cc1ccc(O)c(O)c1)C(C)Cc1ccc(O)c(O)c1 (centres unmarked) [NDGA, Nordihydroguaiaretic acid, reference compound] | – | – | inhibition in vivo at 0.1 mg [1]: 18.2%; inhibition at 10 µM (lipoxygenase): 0 to 20% |
| CC(C(=O)O)c1ccc2oc(-c3ccc(Cl)cc3)nc2c1 (centres unmarked) [Benoxaprofen, benoxaprofen] | – | – | inhibition in vivo at 50 mg/kg [1]: 15.3%; adverse effect [3]: grave adverse effect; effect on psoriasis [3]: effective to psoriasis |
| c1ccc(OCCCOc2ccc(Cc3nc4ccccc4o3)cc2)cc1 [Compound 2, 2-[4-(3-phenoxy)propoxybenzyl]benzoxazole] | 80 to 100 | 20 to 50 | – |
| c1ccc(OCCCCCCOc2ccc(Cc3nc4ccccc4o3)cc2)cc1 [Compound 5] | 80 to 100 | 20 to 50 | – |
| Fc1ccc(OCCCCOc2ccc(Cc3nc4ccccc4o3)cc2)cc1 [Compound 15] | 50 to 80 | 20 to 50 | – |
| COCCCCOc1ccc(Cc2nc3ccccc3o2)cc1 [Compound 25] | 50 to 80 | 20 to 50 | – |
| Clc1ccccc1OCCCCOc1ccc(Cc2nc3ccccc3o2)cc1 [Compound 7] | 50 to 80 | 20 to 50 | – |
| c1ccc(COCCCOc2ccc(Cc3nc4ccccc4o3)cc2)cc1 [Compound 19] | 80 to 100 | 50 to 80 | – |
| Cc1ccccc1OCCCCOc1ccc(Cc2nc3ccccc3o2)cc1 [Compound 10] | 50 to 80 | 20 to 50 | – |
| Clc1cc(OCCCCOc2ccccc2)ccc1Cc1nc2ccccc2o1 [Compound 6] | 80 to 100 | – | inhibition in vivo at 0.1 mg [1]: 48.5% |
| c1ccc(OCCCOc2ccc(Cc3nc4ccccc4s3)cc2)cc1 [Compound 1, 2-[4-(3-phenoxy)propoxybenzyl]benzothiazole] | 80 to 100 | 20 to 50 | – |
| C#CCCCOc1c(Cl)cccc1Cc1nc(-c2ccccc2)co1 [Compound 125] | – | – | inhibition in vivo at 0.1 mg [1]: 41.7% |
